# Target: T1, human ferroportin (Homo sapiens, UniProt Q9NP59)
# T1 construct: luciferase reporter (read with the Nano-Glo Luciferase Assay System); expressed in transfected cells; host or cells: CHO cells, stably transfected, expression induced with doxycycline
# T1 sequence (Q9NP59 1-571): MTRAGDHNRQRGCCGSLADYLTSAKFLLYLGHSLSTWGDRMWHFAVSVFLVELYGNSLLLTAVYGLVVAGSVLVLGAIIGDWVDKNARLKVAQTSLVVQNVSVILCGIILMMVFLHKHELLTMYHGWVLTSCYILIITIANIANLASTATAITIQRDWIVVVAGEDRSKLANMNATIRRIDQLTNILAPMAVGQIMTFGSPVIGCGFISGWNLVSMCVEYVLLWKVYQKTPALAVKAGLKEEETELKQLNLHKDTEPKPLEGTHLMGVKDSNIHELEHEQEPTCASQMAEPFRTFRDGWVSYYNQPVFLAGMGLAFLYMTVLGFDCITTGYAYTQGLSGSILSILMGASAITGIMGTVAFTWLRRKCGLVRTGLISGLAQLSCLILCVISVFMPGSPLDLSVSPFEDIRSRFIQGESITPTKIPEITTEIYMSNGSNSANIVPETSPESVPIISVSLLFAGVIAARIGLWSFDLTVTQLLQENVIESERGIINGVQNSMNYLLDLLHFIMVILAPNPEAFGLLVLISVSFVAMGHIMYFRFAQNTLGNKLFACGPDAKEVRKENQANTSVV
# Assay: Biological in-vitro ferroportin internalization assay (luciferase reporter)
# Type: cell-based
# Details: average pEC50; stably-transfected CHO cell line expressing human ferroportin tagged to a luciferase reporter; 6 h incubation with test compound
# Experimental: The protocol for this assay is generally as described in WO2018/128828, incorporated herein by reference in its entirety. Functional internalization of ferroportin protein was measured using a stably-transfected CHO cell line expressing the human ferroportin tagged to a luciferase reporter. Cells were plated for 24 h in the presence of ferric ammonium citrate (FAC). Ferroportin protein expression was induced with doxycycline for 24 h. The next day, the compounds were added. Test compounds were dissolved in DMSO. Cells were incubated with the test compounds for 6 h, and subsequently luciferase activity was measured using the Nano-Glo Luciferase Assay System and Glomax (Promega, Madison, Wis.). The average pEC50 was determined for the test compounds.
row,Structure (SMILES),pEC50
1,"CN(CC(=O)N1CCOCC1)c1nc(-c2ccccn2)nc2c1CCC2 [Compound 86, 2-{methyl[2-(pyridin-2-yl)-5H,6H,7H-cyclopenta[d]pyrimidin-4-yl]amino}-1-(morpholin-4-yl)ethan-1-one]",6.8
2,"CN(CC(=O)NC(C)(C)C)c1nc(-c2ccc(Cl)cn2)nc2c1CCC2 [Compound 300, N-tert-butyl-2-{[2-(5-chloropyridin-2-yl)-5H,6H,7H-cyclopenta[d]pyrimidin-4-yl](methyl)amino}acetamide]",6.2
3,"CN(CC(=O)NC(C)(C)C)c1nc(-c2cc(OC[C@@H]3CCCN3C)ccn2)nc2c1CCC2 [Compound 412, N-tert-butyl-2-{methyl[2-(4-{[(2S)-1-methylpyrrolidin-2-yl]methoxy}pyridin-2-yl)-5H,6H,7H-cyclopenta[d]pyrimidin-4-yl]amino}acetamide]",8.1
4,"Cc1ccc(NC(=O)CN(C)c2nc(-c3cc(OCCO)ccn3)nc3c2CCC3)cn1 [Compound 199, 2-({2-[4-(2-hydroxyethoxy)pyridin-2-yl]-5H,6H,7H-cyclopenta[d]pyrimidin-4-yl}(methyl)amino)-N-(6-methylpyridin-3-yl)acetamide]",7.9
5,"CN(CC(=O)NC12CC(C1)C2)c1nc(-c2cc(OCC(C)(C)O)ccn2)nc2c1CCC2 [Compound 383, N-{bicyclo[1.1.1]pentan-1-yl}-2-({2-[4-(2-hydroxy-2-methylpropoxy)pyridin-2-yl]-5H,6H,7H-cyclopenta[d]pyrimidin-4-yl}(methyl)amino)acetamide]",7.8
6,"CN(CC(=O)Nc1cccc(F)c1)c1nc(-c2cc3c(cn2)OCCO3)nc2c1CCC2 [Compound 282, 2-[(2-{2H,3H-[1,4]dioxino[2,3-c]pyridin-7-yl}-5H,6H,7H-cyclopenta[d]pyrimidin-4-yl)(methyl)amino]-N-(3-fluorophenyl)acetamide]",7.5
7,"C[C@H](O)COc1ccnc(-c2nc3c(c(N(C)CC(=O)NC(C)(C)C)n2)CCC3)c1 [Compound 370, N-tert-butyl-2-[(2-{4-[(2S)-2-hydroxypropoxy]pyridin-2-yl}-5H,6H,7H-cyclopenta[d]pyrimidin-4-yl)(methyl)amino]acetamide]",8.2
8,"CN(CC(=O)Nc1ccn(C)n1)c1nc(-c2cc3ccccc3cn2)nc2c1CCC2 [Compound 237, 2-{[2-(isoquinolin-3-yl)-5H,6H,7H-cyclopenta[d]pyrimidin-4-yl](methyl)amino}-N-(1-methyl-1H-pyrazol-3-yl)acetamide]",7.1
9,"COc1cnc(-c2nc3c(c(N(C)CC(=O)NC(C)(C)C)n2)CCC3)cc1OC [Compound 145, N-tert-butyl-2-{[2-(4,5-dimethoxypyridin-2-yl)-5H,6H,7H-cyclopenta[d]pyrimidin-4-yl](methyl)amino}acetamide]",6.9
10,"CN(CC(=O)NC(C)(C)C)c1nc(-c2cc(OCCn3ccnc3)ccn2)nc2c1CCC2 [Compound 465, N-tert-butyl-2-[(2-{4-[2-(1H-imidazol-1-yl)ethoxy]pyridin-2-yl}-5H,6H,7H-cyclopenta[d]pyrimidin-4-yl)(methyl)amino]acetamide]",8.3
11,"CN(CC(=O)Nc1ccc(F)nc1)c1nc(-c2cc3cnn(C4CCCCO4)c3cn2)nc2c1CCC2 (stereo not drawn) [Compound 264, N-(6-fluoropyridin-3-yl)-2-[methyl({2-[1-(oxan-2-yl)-1H-pyrazolo[3,4-c]pyridin-5-yl]-5H,6H,7H-cyclopenta[d]pyrimidin-4-yl})amino]acetamide]",6.5
12,"COCc1ccnc(-c2nc3c(c(N(C)CC(=O)NC(C)(C)C)n2)CCC3)c1 [Compound 35, N-tert-butyl-2-({2-[4-(methoxymethyl)pyridin-2-yl]-5H,6H,7H-cyclopenta[d]pyrimidin-4-yl}(methyl)amino)acetamide]",7
13,"COc1ccc(N2CCCN(c3nc(-c4ccccn4)nc4c3CCC4)CC2=O)cc1 [Compound 188, 1-(4-methoxyphenyl)-4-[2-(pyridin-2-yl)-5H,6H,7H-cyclopenta[d]pyrimidin-4-yl]-1,4-diazepan-2-one]",6.7
14,"CO[C@@H]1CCN(CCOc2ccnc(-c3nc4c(c(N(C)CC(=O)NC(C)(C)C)n3)CCC4)c2)C1 [Compound 463, N-tert-butyl-2-{[2-(4-{2-[(3R)-3-methoxypyrrolidin-1-yl]ethoxy}pyridin-2-yl)-5H,6H,7H-cyclopenta[d]pyrimidin-4-yl](methyl)amino}acetamide]",8.1
15,"Cc1ccc(NC(=O)CN(C)c2nc(-c3cc(OCCO)ccn3)nc3c2CCC3)nn1 [Compound 286, 2-({2-[4-(2-hydroxyethoxy)pyridin-2-yl]-5H,6H,7H-cyclopenta[d]pyrimidin-4-yl}(methyl)amino)-N-(6-methylpyridazin-3-yl)acetamide]",7.5
16,"COc1cnc(NC(=O)CN(C)c2nc(-c3cc(OCCO)ccn3)nc3c2CCC3)cn1 [Compound 290, 2-({2-[4-(2-hydroxyethoxy)pyridin-2-yl]-5H,6H,7H-cyclopenta[d]pyrimidin-4-yl}(methyl)amino)-N-(5-methoxypyrazin-2-yl)acetamide]",7.6
17,"Cc1ccnc(-c2nc3c(c(N(C)CC(=O)NC4CCCC4)n2)CCC3)c1 [Compound 64, N-cyclopentyl-2-{methyl[2-(4-methylpyridin-2-yl)-5H,6H,7H-cyclopenta[d]pyrimidin-4-yl]amino}acetamide]",7.8
18,"CN(CC(=O)NC(C)(C)C)c1nc(-c2cc(-c3cnn(C)c3)ccn2)nc2c1CCC2 [Compound 352, N-tert-butyl-2-[methyl({2-[4-(1-methyl-1H-pyrazol-4-yl)pyridin-2-yl]-5H,6H,7H-cyclopenta[d]pyrimidin-4-yl})amino]acetamide]",7.6
19,"CN(CC(=O)NCc1ccccc1)c1nc(-c2ccccn2)nc2c1CCC2 [Compound 27, N-benzyl-2-{methyl[2-(pyridin-2-yl)-5H,6H,7H-cyclopenta[d]pyrimidin-4-yl]amino}acetamide]",6.8
20,"COc1ccnc(-c2nc3c(c(N(C)CC(=O)Nc4ccc(F)nc4)n2)CCC3)c1 [Compound 128, N-(6-fluoropyridin-3-yl)-2-{[2-(4-methoxypyridin-2-yl)-5H,6H,7H-cyclopenta[d]pyrimidin-4-yl](methyl)amino}acetamide]",7.4
21,"C[C@H](C(=O)Nc1ccc(C(F)(F)F)nc1)N(C)c1nc(-c2cc3ccccc3cn2)nc2c1CCC2 [Compound 274, (2R)-2-{[2-(isoquinolin-3-yl)-5H,6H,7H-cyclopenta[d]pyrimidin-4-yl](methyl)amino}-N-[6-(trifluoromethyl)pyridin-3-yl]propanamide]",6.8
22,"COc1ccc(NC(=O)CN(C)c2nc(-c3cc(OC(F)(F)F)ccn3)nc3c2CCC3)cn1 [Compound 230, N-(6-methoxypyridin-3-yl)-2-[methyl({2-[4-(trifluoromethoxy)pyridin-2-yl]-5H,6H,7H-cyclopenta[d]pyrimidin-4-yl})amino]acetamide]",6.6
23,"CN(CC(=O)NC12CC(C1)C2)c1nc(-c2cc(OCCO)ccn2)nc2c1CCC2 [Compound 349, N-{bicyclo[1.1.1]pentan-1-yl}-2-({2-[4-(2-hydroxyethoxy)pyridin-2-yl]-5H,6H,7H-cyclopenta[d]pyrimidin-4-yl}(methyl)amino)acetamide]",7.8
24,"CN(c1nc(-c2cc(OCCO)ccn2)nc2c1CCC2)[C@H]1CCCN(c2cccc(F)c2)C1=O [Compound 320, (3S)-1-(3-fluorophenyl)-3-({2-[4-(2-hydroxyethoxy)pyridin-2-yl]-5H,6H,7H-cyclopenta[d]pyrimidin-4-yl}(methyl)amino)piperidin-2-one]",7.1
25,"CN(C)CCOc1ccnc(-c2nc3c(c(N(C)CC(=O)NC(C)(C)C)n2)C(O)CC3)c1 (stereo not drawn) [Compound 493, N-tert-butyl-2-[(2-{4-[2-(dimethylamino)ethoxy]pyridin-2-yl}-5-hydroxy-5H,6H,7H-cyclopenta[d]pyrimidin-4-yl)(methyl)amino]acetamide]",6.9
26,"CN(C)CCOc1ccnc(-c2nc3c(c(N(C)CC(=O)NC4(C(F)(F)F)CC4)n2)CCC3)c1 [Compound 418, 2-[(2-{4-[2-(dimethylamino)ethoxy]pyridin-2-yl}-5H,6H,7H-cyclopenta[d]pyrimidin-4-yl)(methyl)amino]-N-[1-(trifluoromethyl)cyclopropyl]acetamide]",7.5
27,"CN(CC(=O)NC(C)(C)C)c1nc(-c2cc(OC[C@H](O)CF)ccn2)nc2c1CCC2 [Compound 452, N-tert-butyl-2-[(2-{4-[(2S)-3-fluoro-2-hydroxypropoxy]pyridin-2-yl}-5H,6H,7H-cyclopenta[d]pyrimidin-4-yl)(methyl)amino]acetamide]",8.4

# — patent US11746100B2 (GLOBAL BLOOD THERAPEUTICS, INC., priority 2020, dated 2023)
